Source: PubChem BioAssay (NCI)
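Compound exposure: 48 hours, 5 concentrations, 96-well plates. At the GI50, growth is halved. Definition used: TGI = concentration required for complete inhibition of growth.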

Legend:
Test in all cases: inhibition of tumour cell growth, NCI panel, 48 h
786-0 renal = system: 786-0 renal
A498 renal = system: A498 renal
A549 NSCLC = system: A549 NSCLC
ACHN renal = system: ACHN renal
BT-549 breast = system: BT-549 breast
CAKI-1 renal = system: CAKI-1 renal
CCRF-CEM leukemia = system: CCRF-CEM leukemia
COLO 205 colon = system: COLO 205 colon
DU-145 prostate = system: DU-145 prostate
EKVX NSCLC = system: EKVX NSCLC
HCC-2998 colon = system: HCC-2998 colon
HCT-116 colon = system: HCT-116 colon
HCT-15 colon = system: HCT-15 colon
HOP-62 NSCLC = system: HOP-62 NSCLC
HOP-92 NSCLC = system: HOP-92 NSCLC
HS 578T breast = system: HS 578T breast
HT29 colon = system: HT29 colon
IGROV1 ovarian = system: IGROV1 ovarian
K-562 leukemia = system: K-562 leukemia
KM12 colon = system: KM12 colon
LOX IMVI melanoma = system: LOX IMVI melanoma
M14 melanoma = system: M14 melanoma
MALME-3M melanoma = system: MALME-3M melanoma
MCF7 breast = system: MCF7 breast
MDA-MB-231 breast = system: MDA-MB-231 breast
MDA-MB-435 = system: MDA-MB-435
MOLT-4 leukemia = system: MOLT-4 leukemia
NCI-H226 lung = system: NCI-H226 lung
NCI-H23 lung = system: NCI-H23 lung
NCI-H460 lung = system: NCI-H460 lung
NCI-H522 lung = system: NCI-H522 lung
NCI/ADR-RES ovarian = system: NCI/ADR-RES ovarian
OVCAR-3 ovarian = system: OVCAR-3 ovarian
OVCAR-4 ovarian = system: OVCAR-4 ovarian
OVCAR-5 ovarian = system: OVCAR-5 ovarian
OVCAR-8 ovarian = system: OVCAR-8 ovarian
PC-3 prostate = system: PC-3 prostate
RPMI-8226 leukemia = system: RPMI-8226 leukemia
RXF 393 renal = system: RXF 393 renal
SF-268 CNS = system: SF-268 CNS
SF-295 CNS = system: SF-295 CNS
SF-539 CNS = system: SF-539 CNS
SK-MEL-2 melanoma = system: SK-MEL-2 melanoma
SK-MEL-28 melanoma = system: SK-MEL-28 melanoma
SK-MEL-5 melanoma = system: SK-MEL-5 melanoma
SK-OV-3 ovarian = system: SK-OV-3 ovarian
SN12C renal = system: SN12C renal
SW-620 colon = system: SW-620 colon
T-47D breast = system: T-47D breast
TK-10 renal = system: TK-10 renal
U251 CNS = system: U251 CNS
UACC-257 melanoma = system: UACC-257 melanoma
UACC-62 melanoma = system: UACC-62 melanoma
UO-31 renal = system: UO-31 renal

Compound: Nc1ccccc1C#C/C=C\C#Cc1ccccc1F
- GI50 (786-0 renal): 9.28 µM
- TGI (786-0 renal): 23.6 µM
- GI50 (A498 renal): 7.66 µM
- TGI (A498 renal): 21 µM
- GI50 (A549 NSCLC): 10 µM
- TGI (A549 NSCLC): 95.8 µM
- GI50 (ACHN renal): 13.5 µM
- TGI (ACHN renal): 40 µM
- GI50 (BT-549 breast): 4.06 µM
- TGI (BT-549 breast): 18.1 µM
- GI50 (CAKI-1 renal): 2.89 µM
- TGI (CAKI-1 renal): 9.36 µM
- GI50 (CCRF-CEM leukemia): 0.729 µM
- TGI (CCRF-CEM leukemia): 7.14 µM
- GI50 (COLO 205 colon): 10.3 µM
- TGI (COLO 205 colon): 34.1 µM
- GI50 (DU-145 prostate): 5.49 µM
- TGI (DU-145 prostate): 28 µM
- GI50 (EKVX NSCLC): 10.8 µM
- TGI (EKVX NSCLC): 53.2 µM
- GI50 (HCC-2998 colon): 2.25 µM
- TGI (HCC-2998 colon): 5.26 µM
- GI50 (HCT-116 colon): 3.52 µM
- TGI (HCT-116 colon): 16.1 µM
- GI50 (HCT-15 colon): 5.17 µM
- TGI (HCT-15 colon): 19.7 µM
- GI50 (HOP-62 NSCLC): 6.66 µM
- TGI (HOP-62 NSCLC): 20.8 µM
- GI50 (HOP-92 NSCLC): 17.9 µM
- TGI (HOP-92 NSCLC): > 100 µM
- GI50 (HS 578T breast): 2.09 µM
- TGI (HS 578T breast): 5.1 µM
- GI50 (HT29 colon): 5.06 µM
- TGI (HT29 colon): 47.6 µM
- GI50 (IGROV1 ovarian): 5.34 µM
- TGI (IGROV1 ovarian): 28.8 µM
- GI50 (K-562 leukemia): 3.38 µM
- TGI (K-562 leukemia): > 100 µM
- GI50 (KM12 colon): 2.1 µM
- TGI (KM12 colon): 11 µM
- GI50 (LOX IMVI melanoma): 4.07 µM
- TGI (LOX IMVI melanoma): 14.2 µM
- GI50 (M14 melanoma): 5.39 µM
- TGI (M14 melanoma): 18.3 µM
- GI50 (MALME-3M melanoma): 2.62 µM
- TGI (MALME-3M melanoma): 13.9 µM
- GI50 (MCF7 breast): 3.2 µM
- TGI (MCF7 breast): > 100 µM
- GI50 (MDA-MB-231 breast): 10.1 µM
- TGI (MDA-MB-231 breast): 25.4 µM
- GI50 (MDA-MB-435): 2.05 µM
- TGI (MDA-MB-435): 4.44 µM
- GI50 (MOLT-4 leukemia): 2.13 µM
- TGI (MOLT-4 leukemia): > 100 µM
- GI50 (NCI-H226 lung): 15.2 µM
- TGI (NCI-H226 lung): 33.3 µM
- GI50 (NCI-H23 lung): 10.4 µM
- TGI (NCI-H23 lung): 26.6 µM
- GI50 (NCI-H460 lung): 6.17 µM
- TGI (NCI-H460 lung): 21.2 µM
- GI50 (NCI-H522 lung): 6.74 µM
- TGI (NCI-H522 lung): 23.5 µM
- GI50 (NCI/ADR-RES ovarian): 2.47 µM
- TGI (NCI/ADR-RES ovarian): 6.73 µM
- GI50 (OVCAR-3 ovarian): 2.84 µM
- TGI (OVCAR-3 ovarian): 14.7 µM
- GI50 (OVCAR-4 ovarian): 24.4 µM
- TGI (OVCAR-4 ovarian): > 100 µM
- GI50 (OVCAR-5 ovarian): 9.31 µM
- TGI (OVCAR-5 ovarian): 23.9 µM
- GI50 (OVCAR-8 ovarian): 18.5 µM
- TGI (OVCAR-8 ovarian): 67.7 µM
- GI50 (PC-3 prostate): 6.8 µM
- TGI (PC-3 prostate): > 100 µM
- GI50 (RPMI-8226 leukemia): 2.66 µM
- TGI (RPMI-8226 leukemia): 23.8 µM
- GI50 (RXF 393 renal): 17.8 µM
- TGI (RXF 393 renal): 57.5 µM
- GI50 (SF-268 CNS): 4.23 µM
- TGI (SF-268 CNS): 23.3 µM
- GI50 (SF-295 CNS): 3.9 µM
- TGI (SF-295 CNS): 16.6 µM
- GI50 (SF-539 CNS): 3.82 µM
- TGI (SF-539 CNS): 15.7 µM
- GI50 (SK-MEL-2 melanoma): 17.3 µM
- TGI (SK-MEL-2 melanoma): 47.3 µM
- GI50 (SK-MEL-28 melanoma): 18 µM
- TGI (SK-MEL-28 melanoma): 75.1 µM
- GI50 (SK-MEL-5 melanoma): 2.73 µM
- TGI (SK-MEL-5 melanoma): 12.3 µM
- GI50 (SK-OV-3 ovarian): 16.7 µM
- TGI (SK-OV-3 ovarian): 46 µM
- GI50 (SN12C renal): 7.37 µM
- TGI (SN12C renal): 20.9 µM
- GI50 (SW-620 colon): 16 µM
- TGI (SW-620 colon): > 100 µM
- GI50 (T-47D breast): 8.05 µM
- TGI (T-47D breast): > 100 µM
- GI50 (TK-10 renal): 6.42 µM
- TGI (TK-10 renal): 25.6 µM
- GI50 (U251 CNS): 6.44 µM
- TGI (U251 CNS): 20.7 µM
- GI50 (UACC-257 melanoma): 15.7 µM
- TGI (UACC-257 melanoma): 47.5 µM
- GI50 (UACC-62 melanoma): 7.72 µM
- TGI (UACC-62 melanoma): 21 µM
- GI50 (UO-31 renal): 11.9 µM
- TGI (UO-31 renal): 35 µM
